Consider four substances from PMC11608315, “Subtilase SBT5.2 inactivates flagellin immunogenicity in the plant apoplast” (Nature Communications, 2024).

Data set [1] has as its system FLS2. Particulars: microsomal fractions that presumably lack subtilases; read-out: IC50, competition with binding by radiolabeled flg22; cited from earlier work. An excerpt:
However, although flagellin can bind FLS2, it is unclear at this stage if it would also activate FLS2 signalling because that would require subsequent BAK1 binding to FLS2. The extension of flg22 at its C-terminus is likely to obstruct BAK1 binding, based on the structure of flg22 bound to the FLS2 and BAK1[34].

Data set [2] relates to subtilases in AF of N. benthamiana. Put plainly: Residual immunogenicity (ROS assay) after incubation in AF of leaves transiently expressing Epi1 or empty vector. To be noted: 10 µg/ml monomeric flagellin or 100 nM flg22, 40 min in AF; ROS read-out, n = 6; Fig. 3b. In kind it is in vitro ADME, Nicotiana benthamiana. The protocol: (§1) Agrobacterium tumefaciens GV3101 (pMP90) was used for agroinfiltration of N. benthamiana. Agrobacteria were grown overnight in Luria-Bertani (LB) medium with 10 μg/ml gentamycin and 50 μg/ml kanamycin at 28 °C. For transient expression of proteins in N. benthamiana, overnight cultures of Agrobacterium carrying binary vectors listed in Supplementary Table 1 were harvested by centrifugation. Bacterial cells were resuspended in agroinfiltration buffer (10 mM MgCl2, 10 mM MES pH 5.6, 150 μM acetosyringone) and mixed (1:1) with agrobacteria carrying the silencing inhibitor p19 at an OD600 of 0.5. After 1 h at 28 °C, cells were infiltrated into leaves of 4-week-old N. benthamiana. The infected plants were grown in a growth chamber until use.
N. benthamiana leaves were submerged in ice-cold water and vacuum infiltrated in a 50 ml syringe with a plunger. The surface of water-infiltrated leaves was dried with absorbing paper and leaves were carefully inserted into an empty 20 ml syringe, which was placed in a 50 ml tube. AFs were collected by centrifugation at 2000 × g at 4 °C for 10 min. […]
ROS assays were performed as described previously. […] Chemiluminescence was measured immediately with the Infinite M200 plate reader (Tecan, Mannedorf, Switzerland) every minute for one hour. Standard errors were calculated at each time point and for each treatment.

Data set [3] has as its system apoplastic proteases in apoplastic fluids (AF) of N. benthamiana. Briefly: Residual immunogenicity (ROS assay) after incubation of elicitor in AF of WT plants. To be noted: ROS read-out, n = 6. In kind it is in vitro ADME, Nicotiana benthamiana. On the procedure:
(§2) N. benthamiana leaves were submerged in ice-cold water and vacuum infiltrated in a 50 ml syringe with a plunger. The surface of water-infiltrated leaves was dried with absorbing paper and leaves were carefully inserted into an empty 20 ml syringe, which was placed in a 50 ml tube. AFs were collected by centrifugation at 2000 × g at 4 °C for 10 min. AFs were immediately used or frozen using liquid nitrogen and stored at −20 °C until use.
(§3) ROS assays were performed as described previously. Briefly, after incubation in water overnight, one leaf disc (6 mm diameter) was added to 100 µl solution containing 25 ng/µl luminol, 25 ng/µl Horse Radish Peroxidase (HRP) and specified elicitor treatments. For assays with treated elicitors, elicitor peptides or purified flagellin were incubated in AFs from N. benthamiana leaves (wild-type, agroinfiltrated, VIGS-silenced or sbt5.2 mutants) or purified SBT5.2a-HIS for the specified time at 21 °C. After incubation, 25 ng/µl luminol and 25 ng/µl HRP were added to the AFs. Chemiluminescence was measured immediately with the Infinite M200 plate reader (Tecan, Mannedorf, Switzerland) every minute for one hour. Standard errors were calculated at each time point and for each treatment.

The test system of data set [4] is leaf discs of WT or sbt5.2 mutant N. benthamiana. Put plainly: ROS burst assay on sbt5.2 mutant versus WT leaf discs (timing, dose response). In kind it is cell-based, Nicotiana benthamiana. Particulars: n = 12; Fig. 5e, 5f. The protocol: as §3
In data set [5] the test system is SBT5.2 subtilases in AF. Put plainly: Residual immunogenicity (ROS assay) after incubation in AF of TRV::SBT5.2 or TRV::GFP plants. To be noted: 100 nM flg22, 0, 30, 60 min in AF; ROS read-out, n = 6; Fig. 4b. In kind it is in vitro ADME, Nicotiana benthamiana. The protocol:
(§4) Agrobacterium cultures were grown overnight and resuspended in an agroinfiltration buffer at OD600 = 0.5. Agrobacteria carrying binary plasmids for expressing RNA2 of TRV-carrying silencing fragments (Supplementary Table 1) were mixed 1:1 with Agrobacteria containing TRV1[38]. After incubation for 1 h at 21 °C, the mixed cultures were infiltrated into the leaves of 14-day-old N. benthamiana plants. The infiltrated plants were grown for another 4 to 5 weeks in a growth chamber until use.
as §2
ROS assays were performed as described previously. Briefly, after incubation in water overnight, one leaf disc (6 mm diameter) was added to 100 µl solution containing 25 ng/µl luminol, 25 ng/µl Horse Radish Peroxidase (HRP) and specified elicitor treatments. […] Chemiluminescence was measured immediately with the Infinite M200 plate reader (Tecan, Mannedorf, Switzerland) every minute for one hour. Standard errors were calculated at each time point and for each treatment.

For data set [6], the system named is AF of sbt5.2 mutant N. benthamiana. In kind it is in vitro ADME, Nicotiana benthamiana. To be noted: 100 nM flg22, 30 min in AF; ROS read-out, n = 6; Fig. 5c. On the procedure:
as §2, §3

Data set [7] concerns purified SBT5.2a-His. Briefly: Residual immunogenicity (ROS assay) after incubation with purified SBT5.2a-His. In kind it is biochemical, Nicotiana benthamiana. To be noted: 50 nM flg22, 10 μg/ml SBT5.2a-His, 40 min; ROS read-out, n = 6; Fig. 6b. The protocol: (§5) Four-week-old N. benthamiana leaves were infiltrated with a 1:1 mixture (final OD600 = 0.5 for each) of Agrobacterium tumefaciens GV3101 containing the silencing suppressor P19 and pPB097[22]. Apoplastic fluid containing SBT5.2a-His was extracted 6 days after infiltration as described above and purified as previously described[40],[41]. Briefly, SBT5.2a-His was purified by HisPur™ Ni-NTA resin and concentrated in 25 mM Tris-HCl pH = 6.8 using a 50 kDa MWCO Amicon Ultra-15 filter.
as §3

In data set [8] the test system is purified SBT5.2a-His. Put plainly: QP cleavage by purified SBT5.2a-His (fluorescence). In kind it is biochemical, Nicotiana benthamiana. To be noted: 10 μl of 25 μg/ml SBT5.2a-His, 10 µM QP; n = 4; Fig. 6a. On the procedure: (§6) The quenched peptides (QPs) from flagellin were commercially synthesised with a DABCYL N-terminal modification and a Glu-EDANS C-terminal modification (GenScript, Piscataway, New Jersey, United States) at a purity of 95% (Supplementary Table 2). They were resuspended in DMSO at a concentration of 1 mM. This stock solution was further diluted in water to a concentration of 200 µM. AFs or purified SBT5.2a were mixed with QPs at a final concentration of 10 µM in a volume of 100 µl, and fluorescence was measured immediately at 21 °C using an Infinite M200 plate reader (Tecan, Mannedorf, Switzerland) every minute over 5 min with an excitation wavelength of 335 nm and emission wavelength of 493 nm.
as §5

Data set [9] deals with SBT5.2, SBT1.9a, SBT1.7a, SBT1.7c in AF. Put plainly: QP processing in AF of plants silenced for subtilases (VIGS). In kind it is in vitro ADME, Nicotiana benthamiana. To be noted: 10 µM QP; TRV::GFP = 100%; n = 3 plants; Fig. 4a. On the procedure:
as §6, §4
N. benthamiana leaves were submerged in ice-cold water and vacuum infiltrated in a 50 ml syringe with a plunger. […]

Data set [10] concerns AF of sbt5.2 mutant N. benthamiana. In kind it is in vitro ADME, Nicotiana benthamiana. Particulars: 10 µM QP; n = 4; Fig. 5b. The protocol:
as §6, §2

For data set [11], the system named is subtilases (SBTs), papain-like Cys proteases (PLCPs) and metalloproteases in AF. Briefly: QP processing in AF of leaves expressing protease inhibitors Epi1, SlCys8 or HsTIMP. In kind it is biochemical, Nicotiana benthamiana. Particulars: AF from leaves transiently expressing Epi1 (HsTIMP for comparison); EV = 100%; n = 3; Fig. 3a. On the procedure:
as §1
as §6, with “This stock solution was further diluted in water to a concentration of 200 µM.” left out, “nm. […]” for “nm.”

A short description of data set [12]: Solubility of quenched peptide (observation on dissolving the powder). In kind it is physicochemical. Particulars: noticed when dissolving the peptide powder; response to reviewers.

No end group written: not given here.

By IC50 is commonly meant the midpoint of a concentration-inhibition curve. Take flagellin: the 50% inhibitory concentration (IC50) in data set [1] is 0.12 µM. Further, the “immunogenic activity after incubation in AF from leaves expressing Epi1” value in data set [2] is recorded as “immunogenic activity was detected”. In addition, the “oxidative burst after incubation with AF” value in [3] (10 µg/ml monomeric flagellin incubated with AF for 30 or 60 min, 21 °C, Fig. 1e) is “quickly disappears”. For the same substance, the “timing and amplitude of oxidative burst, WT versus sbt5.2 mutant leaf discs” value in [4] is given as “similar”.
With “TRLSSGLKINSAKDDAAGLQIA [flg22, reference compound]”, the “immunogenic activity after incubation in AF from leaves expressing Epi1” value in [2] is on record as “immunogenic activity was detected”. Besides, in [5], the “decline of immunogenicity in AF of TRV::SBT5.2 compared to TRV::GFP plants” value is “much slower”. Moreover, in data set [6], the “immunogenicity after incubation in AF of sbt5.2 plants” value is on record as “retains immunogenicity significantly longer”. Besides, in data set [3] (100 nM flg22, 30 min in AF, Fig. 5c), the “immunogenicity after incubation in AF of WT plants” value was “quickly lost”. Besides, the “elicitor activity after incubation with purified SBT5.2a-His” value in data set [7] is “inactivated its elicitor activity”.
Turning to “SAKDDAAG [QP3, custom-synthesised quenched peptide with cleavage site SAKD ↓ DAAG within flg22, DABCYL and Glu-EDANS]”, the “cleavage by purified SBT5.2a-His” value in data set [8] is “hardly cleaved”. Moreover, in data set [9], the “QP processing in AF of TRV::SBT1.9a and TRV::SBT1.7a plants” value is on record as “also reduced”; the “QP processing in AF of TRV::SBT5.2 plants compared to TRV::GFP control” value is recorded as “not as strongly reduced”. In addition, in data set [10], the “QP processing in AF of sbt5.2 mutant plants versus WT” value is “only slightly reduced”. Moreover, the “QP processing in AF containing Epi1” value in [11] was “suppressed more by Epi1 than by HsTIMP”.
On to “LQIA ↓ TKITS [QP4, custom-synthesised quenched peptide with flg22-flanking site LQIA ↓ TKITS, DABCYL and Glu-EDANS]”, for which, in data set [10], the “QP processing in AF of sbt5.2 mutant plants versus WT” value is “strongly reduced but not significant”. The solubility entry in [12] is “problematic”. Also, the “QP processing in AF containing Epi1” value in data set [11] was “near complete blockage”.
